Experimental data reported in US20090263470A1, “Vaccine Compositions Comprising Virosomes and a Saponin Adjuvant” (priority 2004, published 2009).
Like-named read-outs stand apart in the source and are kept apart here.

Columns and labels:
[1] = tested on: red blood cells; test: Lytic activity of QS21 alone versus QS21 in the Inflexal V formulation against red blood cells, OD at 540 nm; format: cell-based; details: equivalent of 2.5 μg QS21 in 900 μl PBS pH 7.4 + 100 μl red blood cells, 30 minutes at RT
Description: 500 μl Inflexal V® vaccine, has been adjuvanted by the addition of 50 μg QS21. The resulting composition of this mixture is: +/−117 μg of Lecithin, 45 μg HA, 50 μg QS21 in 525 μl. The lytic activity of QS21 in this formulation has been compared to the lytic activity of QS21 alone.
Practically, a volume of the formulation “Inflexal V+QS21” containing the equivalent of 2.5 μg of QS21 is added to PBS pH 7.4 to reach a final volume of 900 μl. In parallel, 2.5 μg QS21 is taken and also diluted to 900 μl with PBS.
100 μl of red blood cells (10× diluted) are added to those 2 samples as described above. Samples are let for 30 minutes at RT. After centrifugation at 2000 rpm, the OD of the supernatant is red at 540 nm.

[2] = tested on: red blood cells; details: OD at 540 nm
[3] = QS21 injected parenterally as a free molecule; cited from earlier work

QS21
OD [1]: 1.63 | OD ([2]; 1 μg QS21): 0.217 | OD ([2]; 1.5 μg QS21): 0.631 | OD ([2]; 2.5 μg QS21): 0.891 | injection site observation [3]: necrosis
